In patent US10703764B2, “Benzopiperazine compositions as BET bromodomain inhibitors” (FORMA Therapeutics, Inc., priority 2013, dated 2020):

Key:
BRD4 BD1 = molecular target: T1, BRD4 BD1 (Homo sapiens, UniProt O60885); assay: AlphaScreen binding assay, BRD4 Bromodomain 1
T1 construct: made in house
How it was run: (§1)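 Compound dilution series were mixed with His-tagged BRD4 bromodomain and biotinylated tetra-acetylated H4 (1-21) peptide at pH 7.3 (BD1 and peptide at 50 nM, BD2 and peptide at 100 nM). Donor and acceptor beads were then added, and plates were equilibrated at least 1 h before reading. IC50 values were fitted with a four-parameter logistic model.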

BRD4 BD2 = molecular target: T2, BRD4 BD2 (Homo sapiens, UniProt O60885); assay: AlphaScreen binding assay, BRD4 Bromodomain 2
T2 construct: made in house
How it was run: as §1

MV4-11 cells = assay: Oncology cell growth assay (3-day proliferation, CellTiter-Glo); type: cell-based; conditions: Homo sapiens, MV4-11, 72 h, AML cell line MV4-11, 72 hours, compounds grouped by IC50 range, read-out: MV4-11 IC50 (inhibition of proliferation, gIC50)
How it was run: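 MV4-11 AML cells (RPMI 1640, 10% FBS) plated at 3000 cells/well and exposed 72 h to compound at final 10 to 0.0045 μM (3-fold series). Viability read by CellTiter-Glo luminescence; gIC50 from four-parameter logistic fit between DMSO control and no-cell background.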

SMILES | IC50 (BRD4 BD1) | IC50 (BRD4 BD2) | IC50 (MV4-11 cells)
CC(=O)N1c2ccc(-c3ccc(NS(C)(=O)=O)cc3)cc2N(C(=O)OC2CC(F)(F)C2)C[C@@H]1C [Example I-30, (S)-3,3-difluorocyclobutyl 4-acetyl-3-methyl-7-(4-(methylsulfonamido)phenyl)-3,4-dihydroquinoxaline-1(2H)-carboxylate] | 100 to 1000 nM | > 500 nM | > 500 nM
CC(=O)Nc1ccc2c(c1)N(C(C)=O)[C@@H](C)CN2C(=O)OC(C)C [Example I-200, Isopropyl (S)-6-acetamido-4-acetyl-3-methyl-3,4-dihydroquinoxaline-1(2H)-carboxylate] | 1000 to 10000 nM | 50 to 500 nM | > 500 nM
COC(=O)N1c2ccc(-c3cnn(CC(F)(F)F)c3)cc2N(C(=O)OC(C)C)C[C@@H]1C [Example I-636] | 100 to 1000 nM | > 500 nM | > 500 nM
CCC(=O)N1c2ccc(-c3ccc(S(C)(=O)=O)cc3)cc2N(C(=O)c2ccco2)C[C@@H]1C [Example I-365] | 1000 to 10000 nM | < 50 nM | > 500 nM
CC(=O)N1c2ccc(-c3ccc(C(=O)O)cc3)cc2N(C(=O)c2ccco2)C[C@@H]1C [Example I-799] | 1000 to 10000 nM | 50 to 500 nM | > 500 nM
CC(=O)N1c2ccc(-c3cnn(C(C)C)c3)cc2N(C(=O)OC(C)C)C[C@@H]1C [Example I-653] | 100 to 1000 nM | 50 to 500 nM | 100 to 500 nM
CCOC(=O)N1C[C@H](C)N(C(C)=O)c2ccc(-c3cccc(S(=O)(=O)N(C)C)c3)cc21 [Example I-1048] | 1000 to 10000 nM | 50 to 500 nM | > 500 nM
CCOC(=O)N1C[C@H](C)N(C(C)=O)c2ccc(-c3cccc(S(=O)(=O)CC)c3)cc21 [Example I-1092] | 1000 to 10000 nM | 50 to 500 nM | > 500 nM
CC(=O)N1c2ccc(-c3ccc(S(=O)(=O)N(C)C)c(C)c3)cc2N(C(=O)OC(C)C)C[C@@H]1C [Example I-1299] | 100 to 1000 nM | 50 to 500 nM | 100 to 500 nM
CNS(=O)(=O)c1cccc(-c2ccc3c(c2)N(C(=O)C2CCC2)C[C@H](C)N3C(C)=O)c1 [Example I-1105] | 1000 to 10000 nM | 50 to 500 nM | > 500 nM
CC(=O)N1c2ccc(-c3ccc(S(N)(=O)=O)cc3)cc2N(C(=O)OC2CCOCC2)C[C@@H]1C [Example I-1234] | 100 to 1000 nM | 50 to 500 nM | 100 to 500 nM
CNS(=O)(=O)c1ccc(-c2ccc3c(c2)N(C(=O)C2CC2)C[C@H](C)N3C(C)=O)cc1 [Example I-1119] | 1000 to 10000 nM | 50 to 500 nM | 100 to 500 nM
CC(=O)N1c2ccc(-c3cnn(C4CC4)c3)cc2N(c2n[nH]c3ccccc23)C[C@@H]1C [Example I-93, (S)-1-(6-(1-cyclopropyl-1H-pyrazol-4-yl)-4-(1H-indazol-3-yl)-2-methyl-3,4-dihydroquinoxalin-1 (2H)-yl)ethan-1-one] | 100 to 1000 nM | 50 to 500 nM | < 100 nM
CC(=O)N1c2ccc(-c3ccc(C(=O)N(C)CC(=O)N(C)C)cc3)cc2N(C(=O)OC(C)C)C[C@@H]1C [Example I-550] | < 100 nM | 50 to 500 nM | 100 to 500 nM
CNS(=O)(=O)c1ccc(-c2ccc3c(c2)N(C(=O)OC2CCCCC2)C[C@H](C)N3C(C)=O)cc1 [Example I-1261] | 100 to 1000 nM | 50 to 500 nM | 100 to 500 nM
CC(=O)N1c2ccc(-c3ccc(F)c(S(C)(=O)=O)c3)cc2N(C(=O)C2CC2)C[C@@H]1C [Example I-1098] | 1000 to 10000 nM | 50 to 500 nM | > 500 nM
CC(=O)N1CCN(C(=O)c2ccc(-c3ccc4c(c3)N(C(=O)OC(C)C)C[C@H](C)N4C(C)=O)cc2)CC1 [Example I-548] | 100 to 1000 nM | 50 to 500 nM | < 100 nM
CC(=O)N1c2ccc(-c3cnn(C4COC4)c3)cc2N(C(=O)Oc2ccc(F)cc2)C[C@@H]1C [Example I-85, 4-fluorophenyl (S)-4-acetyl-3-methyl-7-(1-(oxetan-3-yl)-1H-pyrazol-4-yl)-3,4-dihydroquinoxaline-1(2H)-carboxylate] | < 100 nM | < 50 nM | 100 to 500 nM
CC(=O)N1c2ccc(-c3ccc(S(=O)(=O)NC(C)(C)C)cc3)cc2N(C(=O)C2CC2)C[C@@H]1C [Example I-1127] | 1000 to 10000 nM | 50 to 500 nM | 100 to 500 nM
CC(=O)N1c2ccc(-c3cnn(C(C)(C)CO)c3)cc2N(C(=O)Oc2ccc(F)cc2)C[C@@H]1C [Example I-1020] | 100 to 1000 nM | < 50 nM | 100 to 500 nM
CC(C)OC(=O)N1C[C@H](C)N(C(=O)C2CC2)c2ccc(-c3cnn(CCC(N)=O)c3)cc21 [Example I-621] | 100 to 1000 nM | 50 to 500 nM | > 500 nM

SMILES | IC50 (BRD4 BD1) | IC50 (BRD4 BD2) | IC50 (MV4-11 cells)
CC(=O)N1c2ccc(-c3cnn(C(C)(C)CO)c3)cc2N(C(=O)Oc2ccc(F)cc2F)C[C@@H]1C [Example I-1014] | 100 to 1000 nM | < 50 nM | 100 to 500 nM
CC(=O)N1c2ccc(-c3cccc(S(C)(=O)=O)c3)cc2N(C(=O)OC(C)C)C[C@@H]1C [Example I-1053] | 1000 to 10000 nM | 50 to 500 nM | 100 to 500 nM
CC(=O)N1c2ccc(-c3cnn(C4CCNCC4)c3)cc2N(C(=O)C2CC2)C[C@@H]1C [Example I-359] | 1000 to 10000 nM | < 50 nM | 100 to 500 nM
CC(=O)N1c2ccc(-c3cccc(NS(C)(=O)=O)c3)cc2N(C(=O)OC2CCOCC2)C[C@@H]1C [Example I-1222] | 100 to 1000 nM | 50 to 500 nM | 100 to 500 nM
CC(=O)N1c2ccc(-c3ccc(C(=O)N4CCC(N)CC4)cc3)cc2N(C(=O)OC(C)C)C[C@@H]1C [Example I-590] | 100 to 1000 nM | 50 to 500 nM | 100 to 500 nM
CC(=O)N1c2ccc(-c3ccc(CN4CCCS4(=O)=O)cc3)cc2N(C(=O)c2ccco2)C[C@@H]1C [Example I-427] | 100 to 1000 nM | < 50 nM | 100 to 500 nM
COC(=O)N1c2ccc(-c3cnn(CC4(C)COC4)c3)cc2N(C(=O)OC(C)C)C[C@@H]1C [Example I-637] | 100 to 1000 nM | 50 to 500 nM | 100 to 500 nM
COC(=O)N1c2ccc(-c3cnn(C(C)(C)C)c3)cc2N(C(=O)OC(C)C)C[C@@H]1C [Example I-332] | 100 to 1000 nM | > 500 nM | > 500 nM
CC(=O)N1c2ccc(-c3ccc4c(ccn4C)c3)cc2N(C(=O)c2ccco2)C[C@@H]1C [Example I-796] | 100 to 1000 nM | < 50 nM | 100 to 500 nM
CC(=O)N1c2ccc(-c3cccc(S(C)(=O)=O)c3)cc2N(C(=O)OC2CCOCC2)C[C@@H]1C [Example I-1226] | 100 to 1000 nM | 50 to 500 nM | > 500 nM
CC(=O)N1c2ccc(-c3cnn(C4CC4)c3)cc2N(C(=O)Oc2cncc(F)c2)C[C@@H]1C [Example I-1189] | 100 to 1000 nM | 50 to 500 nM | 100 to 500 nM
CC(=O)N1c2ccc(-c3cnn(CCC(F)(F)F)c3)cc2N(C(=O)C2CC2)C[C@@H]1C [Example I-150, (S)-1-(4-(cyclopropanecarbonyl)-2-methyl-6-(1-(3,3,3-trifluoropropyl)-1H-pyrazol-4-yl)-3,4-dihydroquinoxalin-1(2H)-yl)ethanone] | 100 to 1000 nM | < 50 nM | > 500 nM
CC(=O)N1c2ccc(-c3cnn(CC4(C)COC4)c3)cc2N(C(=O)C2CC2)C[C@@H]1C [Example I-124, (S)-1-(4-(cyclopropanecarbonyl)-2-methyl-6-(1-((3-methyloxetan-3-yl)methyl)-1H-pyrazol-4-yl)-3,4-dihydroquinoxalin-1(2H)-yl)ethanone] | 1000 to 10000 nM | < 50 nM | 100 to 500 nM
CCS(=O)(=O)c1cccc(-c2ccc3c(c2)N(C(=O)C2CC2)C[C@H](C)N3C(C)=O)c1 [Example I-1090] | 1000 to 10000 nM | 50 to 500 nM | > 500 nM
CC(=O)N1c2ccc(-c3ccc(S(=O)(=O)C4CC4)cc3)cc2N(C(=O)OC2CCCCC2)C[C@@H]1C [Example I-1215] | 100 to 1000 nM | 50 to 500 nM | 100 to 500 nM
CC(=O)N1c2ccc(-c3cnn(C4COC4)c3)cc2N(C(=O)OCC(F)(F)F)C[C@@H]1C [Example I-71, (S)-2,2,2-trifluoroethyl 4-acetyl-3-methyl-7-(1-(oxetan-3-yl)-1H-pyrazol-4-yl)-3,4-dihydroquinoxaline-1(2H)-carboxylate] | < 100 nM | < 50 nM | 100 to 500 nM
CCOC(=O)N1C[C@H](C)N(C(C)=O)c2ccc(-c3ccc(OC)c(S(=O)(=O)N(CC)CC)c3)cc21 [Example I-1114] | 100 to 1000 nM | 50 to 500 nM | > 500 nM
CCOC(=O)N1C[C@H](C)N(C(C)=O)c2ccc(-c3ccc(S(C)(=O)=O)cc3)cc21 [Example I-224] | 100 to 1000 nM | 50 to 500 nM | > 500 nM
CC(=O)N1c2ccc(-c3cnn(C4CC4)c3)cc2N(c2nn(C)c3cc(F)ccc23)C[C@@H]1C [Example I-54, (S)-1-(6-(1-cyclopropyl-1H-pyrazol-4-yl)-4-(6-fluoro-1-methyl-1H-indazol-3-yl)-2-methyl-3,4-dihydroquinoxalin-1(2H)-yl)ethanone] | 100 to 1000 nM | 50 to 500 nM | < 100 nM
CC(=O)N1c2ccc(-c3ccc(S(N)(=O)=O)cc3)cc2N(C(=O)C2CC2)C[C@@H]1C [Example I-1066] | 1000 to 10000 nM | 50 to 500 nM | > 500 nM
